Measured values from the supplement of paper PMC10307832.

Assays:
Assay in all cases: relative viability (nuclei count vs DMSO), 5 days (fraction); higher = more cells survive
NCI-H2126 = system: NCI-H2126
Method in brief: (§1)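 After 5 days of treatment, lung cancer cells in 1536-well plates were fixed and stained in a single step (final 0.05% Triton X-100, 1% formaldehyde, 1 ug/ml Hoechst) and their nuclei counted on 4× images. Treatment had been applied by pin tool the day after seeding as one drug alone or as a fixed anchor-drug dose with five library-drug doses (not always all listed) in √10 steps. Relative viability is the nuclei count of treated wells divided by that of vehicle wells, and values are medians of duplicate plates.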

LC-2-ad = system: LC-2-ad
Method in brief: as §1

EPLC-272H = system: EPLC-272H
Method in brief: as §1

NCI-H2087 = system: NCI-H2087
Method in brief: as §1

ChaGo-K-1 = system: ChaGo-K-1
Method in brief: as §1

LCLC-97TM1 = system: LCLC-97TM1
Method in brief: as §1

NCI-H23 = system: NCI-H23
Method in brief: as §1

HCC-827 = system: HCC-827
Method in brief: as §1

NCI-H520 = system: NCI-H520
Method in brief: as §1

NCI-H2347 = system: NCI-H2347
Method in brief: as §1

NCI-H2405 = system: NCI-H2405
Method in brief: as §1

NCI-H1915 = system: NCI-H1915
Method in brief: as §1

NCI-H1666 = system: NCI-H1666
Method in brief: as §1

PC-14 = system: PC-14
Method in brief: as §1

201T = system: 201T
Method in brief: as §1

NCI-H647 = system: NCI-H647
Method in brief: as §1

HCC-78 = system: HCC-78
Method in brief: as §1

RERF-LC-KJ = system: RERF-LC-KJ
Method in brief: as §1

COR-L 105 = system: COR-L 105
Method in brief: as §1

H3255 = system: H3255
Method in brief: as §1

NCI-H650 = system: NCI-H650
Method in brief: as §1

NCI-H661 = system: NCI-H661
Method in brief: as §1

Compound `O=c1cc(-c2cccc3c2Sc2ccccc2S3)oc(N2CCOCC2)c1` + CC(=O)c1c(C)c2cnc(Nc3ccc(N4CCNCC4)cn3)nc2n(C2CCCC2)c1=O [Palbociclib] (partner 0.5 µM) has a relative viability (NCI-H2126; first compound 0.08 µM) of 0.393, a relative viability (NCI-H2126; first compound 0.253 µM) of 0.361 and a relative viability (NCI-H2126; first compound 0.8 µM) of 0.357. For the same compound, the relative viability (NCI-H2126; first compound 2.53 µM) was 0.358, the relative viability (NCI-H2126; first compound 8 µM) was 0.357 and the relative viability (LC-2-ad; first compound 0.08 µM) was 0.513. The relative viability (LC-2-ad; first compound 0.253 µM) was 0.51, the relative viability (LC-2-ad; first compound 0.8 µM) was 0.469 and the relative viability (LC-2-ad; first compound 2.53 µM) was 0.502. For the same compound, the relative viability (LC-2-ad; first compound 8 µM) was 0.425, the relative viability (EPLC-272H; first compound 0.08 µM) was 0.34 and the relative viability (EPLC-272H; first compound 0.253 µM) was 0.318. For the same compound, the relative viability (EPLC-272H; first compound 0.8 µM) was 0.321, the relative viability (EPLC-272H; first compound 2.53 µM) was 0.287 and the relative viability (EPLC-272H; first compound 8 µM) was 0.285. It also gave a relative viability (NCI-H2087; first compound 0.08 µM) of 0.23, a relative viability (NCI-H2087; first compound 0.253 µM) of 0.234 and a relative viability (NCI-H2087; first compound 0.8 µM) of 0.203. For the same compound, the relative viability (NCI-H2087; first compound 2.53 µM) was 0.222, the relative viability (NCI-H2087; first compound 8 µM) was 0.201 and the relative viability (ChaGo-K-1; first compound 0.08 µM) was 0.942. The relative viability (ChaGo-K-1; first compound 0.253 µM) was 1.12, the relative viability (ChaGo-K-1; first compound 0.8 µM) was 0.842 and the relative viability (ChaGo-K-1; first compound 2.53 µM) was 0.899. It also gave a relative viability (ChaGo-K-1; first compound 8 µM) of 1.09, a relative viability (LCLC-97TM1; first compound 0.08 µM) of 0.247 and a relative viability (LCLC-97TM1; first compound 0.253 µM) of 0.26. For the same compound, the relative viability (LCLC-97TM1; first compound 0.8 µM) was 0.245, the relative viability (LCLC-97TM1; first compound 2.53 µM) was 0.228 and the relative viability (LCLC-97TM1; first compound 8 µM) was 0.241. For the same compound, the relative viability (NCI-H23; first compound 0.08 µM) was 0.57, the relative viability (NCI-H23; first compound 0.253 µM) was 0.485 and the relative viability (NCI-H23; first compound 0.8 µM) was 0.498. It also gave a relative viability (NCI-H23; first compound 2.53 µM) of 0.451, a relative viability (NCI-H23; first compound 8 µM) of 0.451 and a relative viability (HCC-827; first compound 0.08 µM) of 0.479. The relative viability (HCC-827; first compound 0.253 µM) was 0.493, the relative viability (HCC-827; first compound 0.8 µM) was 0.444 and the relative viability (HCC-827; first compound 2.53 µM) was 0.37. The relative viability (HCC-827; first compound 8 µM) was 0.442, the relative viability (NCI-H520; first compound 0.08 µM) was 0.233 and the relative viability (NCI-H520; first compound 0.253 µM) was 0.22. For the same compound, the relative viability (NCI-H520; first compound 0.8 µM) was 0.21, the relative viability (NCI-H520; first compound 2.53 µM) was 0.243 and the relative viability (NCI-H520; first compound 8 µM) was 0.231. The relative viability (NCI-H2347; first compound 0.08 µM) was 0.42, the relative viability (NCI-H2347; first compound 0.253 µM) was 0.483 and the relative viability (NCI-H2347; first compound 0.8 µM) was 0.453. For the same compound, the relative viability (NCI-H2347; first compound 2.53 µM) was 0.39, the relative viability (NCI-H2347; first compound 8 µM) was 0.483 and the relative viability (NCI-H2405; first compound 0.08 µM) was 0.523. It also gave a relative viability (NCI-H2405; first compound 0.253 µM) of 0.534, a relative viability (NCI-H2405; first compound 0.8 µM) of 0.55 and a relative viability (NCI-H2405; first compound 2.53 µM) of 0.491. The relative viability (NCI-H2405; first compound 8 µM) was 0.503, the relative viability (NCI-H1915; first compound 0.08 µM) was 0.549 and the relative viability (NCI-H1915; first compound 0.253 µM) was 0.527. The relative viability (NCI-H1915; first compound 0.8 µM) was 0.541, the relative viability (NCI-H1915; first compound 2.53 µM) was 0.509 and the relative viability (NCI-H1915; first compound 8 µM) was 0.497. For the same compound, the relative viability (NCI-H1666; first compound 0.08 µM) was 0.638, the relative viability (NCI-H1666; first compound 0.253 µM) was 0.673 and the relative viability (NCI-H1666; first compound 0.8 µM) was 0.679. The relative viability (NCI-H1666; first compound 2.53 µM) was 0.659, the relative viability (NCI-H1666; first compound 8 µM) was 0.601 and the relative viability (PC-14; first compound 0.08 µM) was 0.552. For the same compound, the relative viability (PC-14; first compound 0.253 µM) was 0.746, the relative viability (PC-14; first compound 0.8 µM) was 0.578 and the relative viability (PC-14; first compound 2.53 µM) was 0.46. The relative viability (PC-14; first compound 8 µM) was 0.489, the relative viability (201T; first compound 0.08 µM) was 0.348 and the relative viability (201T; first compound 0.253 µM) was 0.362. It also gave a relative viability (201T; first compound 0.8 µM) of 0.373, a relative viability (201T; first compound 2.53 µM) of 0.348 and a relative viability (201T; first compound 8 µM) of 0.359. It also gave a relative viability (NCI-H647; first compound 0.08 µM) of 0.438, a relative viability (NCI-H647; first compound 0.253 µM) of 0.487 and a relative viability (NCI-H647; first compound 0.8 µM) of 0.357. It also gave a relative viability (NCI-H647; first compound 2.53 µM) of 0.296, a relative viability (NCI-H647; first compound 8 µM) of 0.391 and a relative viability (HCC-78; first compound 0.08 µM) of 0.506. For the same compound, the relative viability (HCC-78; first compound 0.253 µM) was 0.458, the relative viability (HCC-78; first compound 0.8 µM) was 0.427 and the relative viability (HCC-78; first compound 2.53 µM) was 0.417. The relative viability (HCC-78; first compound 8 µM) was 0.487, the relative viability (RERF-LC-KJ; first compound 0.08 µM) was 1.11 and the relative viability (RERF-LC-KJ; first compound 0.253 µM) was 1.32. The relative viability (RERF-LC-KJ; first compound 0.8 µM) was 1.08, the relative viability (RERF-LC-KJ; first compound 2.53 µM) was 1.04 and the relative viability (RERF-LC-KJ; first compound 8 µM) was 0.971. It also gave a relative viability (COR-L 105; first compound 0.08 µM) of 0.349, a relative viability (COR-L 105; first compound 0.253 µM) of 0.319 and a relative viability (COR-L 105; first compound 0.8 µM) of 0.385. The relative viability (COR-L 105; first compound 2.53 µM) was 0.413, the relative viability (COR-L 105; first compound 8 µM) was 0.416 and the relative viability (H3255; first compound 0.08 µM) was 0.334. It also gave a relative viability (H3255; first compound 0.253 µM) of 0.295, a relative viability (H3255; first compound 0.8 µM) of 0.305 and a relative viability (H3255; first compound 2.53 µM) of 0.278. It also gave a relative viability (H3255; first compound 8 µM) of 0.33, a relative viability (NCI-H650; first compound 0.08 µM) of 0.346 and a relative viability (NCI-H650; first compound 0.253 µM) of 0.323. The relative viability (NCI-H650; first compound 0.8 µM) was 0.372, the relative viability (NCI-H650; first compound 2.53 µM) was 0.278 and the relative viability (NCI-H650; first compound 8 µM) was 0.36. It also gave a relative viability (NCI-H661; first compound 0.08 µM) of 0.416, a relative viability (NCI-H661; first compound 0.253 µM) of 0.438 and a relative viability (NCI-H661; first compound 0.8 µM) of 0.393. For the same compound, the relative viability (NCI-H661; first compound 2.53 µM) was 0.394 and the relative viability (NCI-H661; first compound 8 µM) was 0.379.
